Results from the NIST ThermoML archive (doi:10.1021/je0342724).
Numbers after ± are expanded uncertainties.

Key:
[1] = Crystal; DTA
[2] = Molar enthalpy of transition or fusion; conditions: Crystal; DSC

Compound	Normal melting temperature [1] [°C]	Molar enthalpy of transition or fusion [2] [kcal/mol]
Brc1ccc(Br)c(Br)c1 [1,2,4-tribromobenzene]	44 ± 1.1	4.28 ± 0.43
Brc1ccc(Br)cc1 [1,4-dibromobenzene]	84.6 ± 1.1	4.45 ± 0.454
Brc1c(Br)c(Br)c(Br)c(Br)c1Br [hexabromobenzene]	325.6 ± 1.1	5.88 ± 0.598
Brc1cc(Br)c(Br)cc1Br [1,2,4,5-tetrabromobenzene]	181.4 ± 1.1	5.83 ± 0.598
